≈ marks a conversion by molar mass, not a printed value.
Tests used:
HTLV-IIIB = test: Anti-HIV activity by MTT (tetrazolium) method in MT-4 cells; type: cell-based; conditions: for EC₅₀: MT-4 cells infected with HTLV-IIIB, MOI 0.01, 5 days, MTT
Procedure: (§1) Test Method: MMT (the tetrazolium assay) method Cell: MT-4 Cell Virus: HTLV-IIIB (Infection : 3 x 10⁵ plaque forming units (PFU)/ml) MT-4 cells were suspended in a culture medium at 2 x 10⁵ cells/ml and infected with HIV-IIIB at a multiplicity of infection of 0.01. Immediately after infection, 100µl of cell suspension was placed into microtiter tray wells containing various concentrations of the test samples. At the same time, the mock-infected cells were also cultured together with the samples in order to assess the cell toxicity of the test samples to the MT-4 cell. They were cultured in a CO₂-gas incubator at 37°C for 5 days, and the number of viable cells were determined by the MTT method. Antiviral activity is expressed by EC₅₀ (50% effective concentration), the concentration at which the agent protects 50% of the cells from injury by HIV infection, and cell toxicity by CC₅₀ (50% cell toxicity concentration), the concentration at which 50% of the cells are injured by the agent. Selectivity is measured by a selectivity index (S.I), which is expressed by CC₅₀/EC₅₀ (R. Pauwels, et al., J. of […], vol. 20, 1988, pp. 309-321).

MT-4 Cell [1] = test: Cell toxicity to mock-infected MT-4 cells by MTT method; type: cell-based; conditions: 5 days
Procedure: as §1

[2] = as above; type: cell-based; conditions: human, 5 days, read-out: CC₅₀
Procedure: as §1

MT-4 Cell [3] = test: Viable count of mock-infected MT-4 cells cultured with sample (trypan blue exclusion); type: cell-based
Procedure: Samples: MPS-1, MPS-2, MPS-3 and LPS-1 Cell and Virus: MT-4 Cell, MOLT-4 Cell HTLV as one HIV strain was prepared from the supernatant of the HIV-infected cells. The titer for the virus preparation (6 x 10⁵ plaque formation units/ml) was measured by the plaque assay method using MT-4 cells.
The MT-4 cells were mixed with HIV at 0.002MOI (multiplicity of infection), to be cultured at 37°C for 60 min. The virus-absorbing cells were washed and adjusted at 3 x 10⁵ cells/ml (the culture medium was RPMI1640 which supplemented with 10% heat-inactivated fetal calf serum and antibiotic). The suspension of the infected cells was cultured in the presence of the sample, and then cultured in a CO₂-containing atmosphere for 3 days. Then, the medium was replaced with the one containing the same quantity of the sample. Percentages of the viable cells and virus antigen positive cells were counted by the trypan blue exclusion method and indirect fluorescent antibody (IF) methods, respectively.
The test results are given in Tables 1 through 8, where the units for concentration, mock-infected cell count, infected cell count, percentage of HIV-antigen positive cell are µg/ml, x 10⁴cells/ml, and x 10⁴cells/ml, %, respectively.

HIV [4] = test: HIV-induced cytopathic effect: viable count of HIV-infected MT-4 cells (trypan blue exclusion)
Procedure: (§2) The anti-HIV activity of each sample was evaluated by the HIV-induced cytopathic effect (CPE) and the expression of the virus-specific antigen.

HIV [5] = test: Expression of virus-specific antigen in HIV-infected MT-4 cells (indirect fluorescent antibody method)
Procedure: as §2

[6] = 3rd day, concentration 25 µg/ml
[7] = 3rd day, concentration 50 µg/ml
[8] = 3rd day, concentration 100 µg/ml
[9] = 3rd day, concentration 200 µg/ml
[10] = 3rd day, concentration 500 µg/ml
[11] = 6th day, concentration 25 µg/ml
[12] = 6th day, concentration 50 µg/ml
[13] = 6th day, concentration 100 µg/ml
[14] = 6th day, concentration 200 µg/ml

## sodium salt of octadecyl maltotrioside sulfate [MTS-1]
HTLV-IIIB
  EC₅₀: 1) > 40 µg/ml
MT-4 Cell [1]
  CC₅₀: 329 µg/mL

## sodium salt of n-decyl β-laminaripentaoside sulfate [LPS-3]
HTLV-IIIB
  EC₅₀: = 67 µg/ml

## sodium salt of dodecyl β-D-laminaripentaoside sulfate [LPS-1-1]
HTLV-IIIB
  EC₅₀: 0.68 µg/mL
MT-4 Cell [1]
  CC₅₀: > 1000 µg/mL

## Cc1cn([C@H]2C[C@H](N=[N+]=[N-])[C@@H](CO)O2)c(=O)[nH]c1=O [AZT, 3'-azide-3'-deoxythymidine, reference compound]
HTLV-IIIB; Human immunodeficiency virus 1, IIIB, MT4, 120 h, read-out: EC₅₀
  EC50: 0.0019 µg/mL (≈ 0.00711 µM)
[2]
  CC50 at 120 h: 3.06 µg/mL (≈ 11.5 µM)

## sodium salt of sulfated dodecyl β-D-laminarpentaoside [LPS-1]
MT-4 Cell [3]; [6]
  Mock-infected cell count: 151 x 10⁴cells/ml
MT-4 Cell [3]; [7]
  Mock-infected cell count: 149 x 10⁴cells/ml
MT-4 Cell [3]; [8]
  Mock-infected cell count: 136 x 10⁴cells/ml
MT-4 Cell [3]; [9]
  Mock-infected cell count: 120 x 10⁴cells/ml
MT-4 Cell [3]; [10]
  Mock-infected cell count: 79 x 10⁴cells/ml
MT-4 Cell [3]; [11]
  Mock-infected cell count: 145 x 10⁴cells/ml
MT-4 Cell [3]; [12]
  Mock-infected cell count: 149 x 10⁴cells/ml
MT-4 Cell [3]; [13]
  Mock-infected cell count: 140 x 10⁴cells/ml
MT-4 Cell [3]; [14]
  Mock-infected cell count: 124 x 10⁴cells/ml
HIV [4]; [6]
  HIV-infected cell count: 133 x 10⁴cells/ml
HIV [4]; [7]
  HIV-infected cell count: 128 x 10⁴cells/ml
HIV [4]; [8]
  HIV-infected cell count: 130 x 10⁴cells/ml
HIV [4]; [11]
  HIV-infected cell count: 88 x 10⁴cells/ml
HIV [4]; [12]
  HIV-infected cell count: 150 x 10⁴cells/ml
HIV [4]; [13]
  HIV-infected cell count: 107 x 10⁴cells/ml
HIV [5]; [6]
  Percentage of HIV-antigen positive cell: 3%
HIV [5]; [7]
  Percentage of HIV-antigen positive cell: < 1%
HIV [5]; [8]
  Percentage of HIV-antigen positive cell: < 1%
HIV [5]; [9]
  Percentage of HIV-antigen positive cell: < 1%
HIV [5]; [10]
  Percentage of HIV-antigen positive cell: < 1%
HIV [5]; [11]
  Percentage of HIV-antigen positive cell: 20%
HIV [5]; [12]
  Percentage of HIV-antigen positive cell: < 1%
HIV [5]; [13]
  Percentage of HIV-antigen positive cell: 0%
HIV [5]; [14]
  Percentage of HIV-antigen positive cell: 0%

## sodium salt of dodecyl maltohexaoside sulfate [MHS-2]
HTLV-IIIB
  EC₅₀: 3.91 µg/mL
MT-4 Cell [1]
  CC₅₀: > 1000 µg/mL

## sodium salt of n-hexadecyl β-laminaripentaoside sulfate [LPS-2]
HTLV-IIIB
  EC₅₀: = 17 µg/ml

## sodium salt of octadecyl maltohexaoside sulfate [MHS-3]
HTLV-IIIB
  EC₅₀: 10.36 µg/mL
MT-4 Cell [1]
  CC₅₀: 580 µg/mL

## sodium salt of octadecyl maltoheptaoside sulfate [MHS-1]
HTLV-IIIB
  EC₅₀: 2) > 40 µg/ml
MT-4 Cell [1]
  CC₅₀: 355 µg/mL

## sodium salt of dodecyl 4-galactosyl-β-D-lactoside sulfate [GTS-2]
HTLV-IIIB
  EC₅₀: 8.6 µg/mL
MT-4 Cell [1]
  CC₅₀: 858 µg/mL

## sodium salt of dodecyl 4-galactosyl β-D-lactoside sulfate [GTS-1]
HTLV-IIIB
  EC₅₀: 9.8 µg/mL

— patent EP0497988A1, “ANTIVIRAL AGENT” (DAINIPPON INK AND CHEMICALS, INC., priority 1990, dated 1992)
